Data reported in PubChem BioAssay AID2060494 (Molecular Pharmacology Branch, DTP, NCI, 2025).

System: 435261-313-R-J1-PDC complex spheroid viability
Assay: Anticancer human tumor 435261-313-R-J1-PDC patient-derived colon adenocarcinoma cell line growth inhibition [GQUAD]
Details: for IC50: curve of first compound; for viability, T/C: stronger effect = lower value
Outline: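 Viability of tumor cells grown as complex spheroids with endothelial and stromal cells, exposed to drug combinations. Top concentration at or near clinical Cmax (else 10 microM), diluted in half-log increments.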

[1] = second compound 0.0316 µM, first compound 0.0316 µM
[2] = second compound 0.0316 µM, first compound 0.1 µM
[3] = second compound 0.0316 µM, first compound 0.316 µM
[4] = second compound 0.0316 µM, first compound 1 µM
[5] = second compound 0.0316 µM, first compound 3.16 µM
[6] = second compound 0.0316 µM, first compound 10 µM
[7] = second compound 0.1 µM, first compound 0.0316 µM
[8] = second compound 0.1 µM, first compound 0.1 µM
[9] = second compound 0.1 µM, first compound 0.316 µM
[10] = second compound 0.1 µM, first compound 1 µM
[11] = second compound 0.1 µM, first compound 3.16 µM
[12] = second compound 0.1 µM, first compound 10 µM
[13] = second compound 0.316 µM, first compound 0.0316 µM
[14] = second compound 0.316 µM, first compound 0.1 µM
[15] = second compound 0.316 µM, first compound 0.316 µM
[16] = second compound 0.316 µM, first compound 1 µM
[17] = second compound 0.316 µM, first compound 3.16 µM
[18] = second compound 0.316 µM, first compound 10 µM
[19] = second compound 1 µM, first compound 0.0316 µM
[20] = second compound 1 µM, first compound 0.1 µM
[21] = second compound 1 µM, first compound 0.316 µM
[22] = second compound 1 µM, first compound 1 µM
[23] = second compound 1 µM, first compound 3.16 µM
[24] = second compound 1 µM, first compound 10 µM
[25] = second compound 3.16 µM, first compound 0.0316 µM
[26] = second compound 3.16 µM, first compound 0.1 µM
[27] = second compound 3.16 µM, first compound 0.316 µM
[28] = second compound 3.16 µM, first compound 1 µM
[29] = second compound 3.16 µM, first compound 3.16 µM
[30] = second compound 3.16 µM, first compound 10 µM
[31] = second compound 10 µM, first compound 0.0316 µM
[32] = second compound 10 µM, first compound 0.1 µM
[33] = second compound 10 µM, first compound 0.316 µM
[34] = second compound 10 µM, first compound 1 µM
[35] = second compound 10 µM, first compound 3.16 µM
[36] = second compound 10 µM, first compound 10 µM
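Note: spheroids exposed to the agents for seven days before readout.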
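Throughout, for viability, T/C: percent of vehicle control viability with DMSO wells as 100%.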

C#Cc1c(F)ccc2cc(O)cc(-c3ncc4c(N5CC6CCC(C5)N6)nc(OCC56CCCN5CC(F)C6)nc4c3F)c12 (stereo unspecified) + Cc1[nH]c2ccc(F)cc2c1-c1nc2c3cccnc3c3ncccc3c2[nH]1
IC50 (second compound 0.0316 µM): > 10 µM
IC50 (second compound 0.1 µM): > 10 µM
IC50 (second compound 0.316 µM): > 10 µM
IC50 (second compound 1 µM): > 10 µM
IC50 (second compound 3.16 µM): < 0.0316 µM
IC50 (second compound 10 µM): < 0.0316 µM
viability, T/C [1]: 94.8%
viability, T/C [2]: 106%
viability, T/C [3]: 88.9%
viability, T/C [4]: 104%
viability, T/C [5]: 65.6%
viability, T/C [6]: 58.9%
viability, T/C [7]: 107%
viability, T/C [8]: 85.4%
viability, T/C [9]: 104%
viability, T/C [10]: 62%
viability, T/C [11]: 61.1%
viability, T/C [12]: 57%
viability, T/C [13]: 64.5%
viability, T/C [14]: 111%
viability, T/C [15]: 75.8%
viability, T/C [16]: 75.4%
viability, T/C [17]: 84.7%
viability, T/C [18]: 74.4%
viability, T/C [19]: 61.8%
viability, T/C [20]: 55.1%
viability, T/C [21]: 85.6%
viability, T/C [22]: 66.9%
viability, T/C [23]: 63.5%
viability, T/C [24]: 46.3%
viability, T/C [25]: 51.2%
viability, T/C [26]: 42.9%
viability, T/C [27]: 39.6%
viability, T/C [28]: 28.4%
viability, T/C [29]: 45%
viability, T/C [30]: 0.2%
viability, T/C [31]: 24.2%
viability, T/C [32]: 28.3%
viability, T/C [33]: 28.4%
viability, T/C [34]: 37.1%
viability, T/C [35]: 29%
viability, T/C [36]: 0.26%

C=CC(=O)N1CCN(c2nc(=O)n(-c3c(C)ccnc3C(C)C)c3nc(-c4c(O)cccc4F)c(F)cc23)C(C)C1 (stereo unspecified) + Cc1[nH]c2ccc(F)cc2c1-c1nc2c3cccnc3c3ncccc3c2[nH]1
IC50 (second compound 0.0316 µM): > 10 µM
IC50 (second compound 0.1 µM): > 10 µM
IC50 (second compound 0.316 µM): > 10 µM
IC50 (second compound 1 µM): > 10 µM
IC50 (second compound 3.16 µM): < 0.0316 µM
IC50 (second compound 10 µM): < 0.0316 µM
viability, T/C [1]: 98.7%
viability, T/C [2]: 69.3%
viability, T/C [3]: 116%
viability, T/C [4]: 126%
viability, T/C [5]: 127%
viability, T/C [6]: 83.8%
viability, T/C [7]: 85%
viability, T/C [8]: 131%
viability, T/C [9]: 92.8%
viability, T/C [10]: 109%
viability, T/C [11]: 129%
viability, T/C [12]: 97.8%
viability, T/C [13]: 97.6%
viability, T/C [14]: 106%
viability, T/C [15]: 88.7%
viability, T/C [16]: 73.9%
viability, T/C [17]: 122%
viability, T/C [18]: 104%
viability, T/C [19]: 78.4%
viability, T/C [20]: 84%
viability, T/C [21]: 74.2%
viability, T/C [22]: 71.2%
viability, T/C [23]: 61%
viability, T/C [24]: 80.4%
viability, T/C [25]: 41.5%
viability, T/C [26]: 27.6%
viability, T/C [27]: 28.1%
viability, T/C [28]: 42.5%
viability, T/C [29]: 54.2%
viability, T/C [30]: 32%
viability, T/C [31]: 22.4%
viability, T/C [32]: 24.8%
viability, T/C [33]: 24.8%
viability, T/C [34]: 16.2%
viability, T/C [35]: 28.3%
viability, T/C [36]: 22.4%

CC(=O)O[C@H]1C(=O)[C@@]2(C)[C@H]([C@H](OC(=O)c3ccccc3)[C@]3(O)C[C@H](OC(=O)[C@H](O)[C@@H](NC(=O)c4ccccc4)c4ccccc4)C(C)=C1C3(C)C)[C@]1(OC(C)=O)CO[C@@H]1C[C@@H]2O + Cc1[nH]c2ccc(F)cc2c1-c1nc2c3cccnc3c3ncccc3c2[nH]1
IC50 (second compound 0.0316 µM): > 10 µM
IC50 (second compound 0.1 µM): > 10 µM
IC50 (second compound 0.316 µM): > 10 µM
IC50 (second compound 1 µM): < 0.0316 µM
IC50 (second compound 3.16 µM): < 0.0316 µM
IC50 (second compound 10 µM): < 0.0316 µM
viability, T/C [1]: 67.5%
viability, T/C [2]: 71.4%
viability, T/C [3]: 74.7%
viability, T/C [4]: 65.8%
viability, T/C [5]: 63.8%
viability, T/C [6]: 76.8%
viability, T/C [7]: 83.2%
viability, T/C [8]: 78.5%
viability, T/C [9]: 78.1%
viability, T/C [10]: 57.8%
viability, T/C [11]: 69.2%
viability, T/C [12]: 71%
viability, T/C [13]: 63.4%
viability, T/C [14]: 66.2%
viability, T/C [15]: 52.5%
viability, T/C [16]: 48.9%
viability, T/C [17]: 51%
viability, T/C [18]: 60%
viability, T/C [19]: 41.5%
viability, T/C [20]: 48.1%
viability, T/C [21]: 53%
viability, T/C [22]: 46.4%
viability, T/C [23]: 47.2%
viability, T/C [24]: 42.2%
viability, T/C [25]: 41.6%
viability, T/C [26]: 40.8%
viability, T/C [27]: 40.1%
viability, T/C [28]: 24.6%
viability, T/C [29]: 29%
viability, T/C [30]: 29.1%
viability, T/C [31]: 25.7%
viability, T/C [32]: 32.3%
viability, T/C [33]: 26.7%
viability, T/C [34]: 24.4%
viability, T/C [35]: 21.9%
viability, T/C [36]: 28%
